Data on eleven compounds can be found in ChEMBL document CHEMBL1151963 (J Med Chem, 2009).

The source made the active and inactive calls. The rule behind the calls is not given here.

The nature of data set [1]: Aqueous solubility at pH 3. The conditions noted are these: buffer. It counts as physicochemical.
Another data set concerns LNCaP. As to the kind of experiment: Cytotoxicity against human LNCAP cells after 3 days by MTS assay. It counts as functional, cell-based. The conditions noted are these: 72 h. For orientation: Tetrazolium assays rely on reduction of a dye to a coloured formazan, in cell work by metabolically active cells.
For data set [2], the target named is Serine/threonine-protein kinase mTOR (Homo sapiens, UniProt P42345). As to the kind of experiment: Inhibition of flag-tagged truncated human mTOR (1360-2549) expressed in HEK293 cells by DELFIA assay. It counts as cell-based.
A short description of data set [3]: Metabolic stability in nude mouse microsomes assessed as half life at 1 uM by HPLC-MS/MS analysis. It counts as ADME, Microsome.
Data set [4] can be described thus: Antitumor activity against human U87MG cells xenografted in BALB/c nu/nu mouse at 50 mg/kg, ip administered once daily for 5 days measured on day 7 relative to control. The format is functional, U-87MG ATCC. The conditions noted are these: route intraperitoneal. (In general: In xenograft studies the graft and the host belong to different species.)
In data set [5] the test system is Mus musculus. As to the kind of experiment: Inhibition of PI3K in BALB/c nu/nu mouse bearing PTEN-null human PC3MM2 xenograft tumor assessed as suppression of AKT phosphorylation at T308 at 50 mg/kg, ip administered as single dose for 4 hrs. It counts as functional, organism-based. The arrangement: dose 50 mg/kg.
Data set [6] deals with Mus musculus. Description: Inhibition of mTOR complex 2 in BALB/c nu/nu mouse bearing PTEN-null human PC3MM2 xenograft tumor assessed as suppression of AKT phosphorylation at S473 at 50 mg/kg, ip administered as single dose for 4 hrs. More on the design: dose 50 mg/kg. It counts as functional, organism-based.
The test system of data set [7] is Mus musculus. As to the kind of experiment: Inhibition of mTOR complex 1 in BALB/c nu/nu mouse bearing PTEN-null human PC3MM2 xenograft tumor assessed as suppression of S6K phosphorylation at T389 at 50 mg/kg, ip administered as single dose for 4 hrs. The format is functional, organism-based. More on the design: dose 50 mg/kg.
Data set [8] deals with Phosphatidylinositol 4,5-bisphosphate 3-kinase catalytic subunit alpha isoform (Homo sapiens, UniProt P42336). Description: Inhibition of PI3Kalpha expressed in Escherichia coli by microtiter plate-based fluorescence polarization assay. (In general: Fluorescence polarisation rises when a labelled molecule tumbles more slowly, as on binding a larger partner.)
Phosphatidylinositol 4,5-bisphosphate 3-kinase catalytic subunit alpha isoform, sequence (P42336 whole entry, canonical isoform): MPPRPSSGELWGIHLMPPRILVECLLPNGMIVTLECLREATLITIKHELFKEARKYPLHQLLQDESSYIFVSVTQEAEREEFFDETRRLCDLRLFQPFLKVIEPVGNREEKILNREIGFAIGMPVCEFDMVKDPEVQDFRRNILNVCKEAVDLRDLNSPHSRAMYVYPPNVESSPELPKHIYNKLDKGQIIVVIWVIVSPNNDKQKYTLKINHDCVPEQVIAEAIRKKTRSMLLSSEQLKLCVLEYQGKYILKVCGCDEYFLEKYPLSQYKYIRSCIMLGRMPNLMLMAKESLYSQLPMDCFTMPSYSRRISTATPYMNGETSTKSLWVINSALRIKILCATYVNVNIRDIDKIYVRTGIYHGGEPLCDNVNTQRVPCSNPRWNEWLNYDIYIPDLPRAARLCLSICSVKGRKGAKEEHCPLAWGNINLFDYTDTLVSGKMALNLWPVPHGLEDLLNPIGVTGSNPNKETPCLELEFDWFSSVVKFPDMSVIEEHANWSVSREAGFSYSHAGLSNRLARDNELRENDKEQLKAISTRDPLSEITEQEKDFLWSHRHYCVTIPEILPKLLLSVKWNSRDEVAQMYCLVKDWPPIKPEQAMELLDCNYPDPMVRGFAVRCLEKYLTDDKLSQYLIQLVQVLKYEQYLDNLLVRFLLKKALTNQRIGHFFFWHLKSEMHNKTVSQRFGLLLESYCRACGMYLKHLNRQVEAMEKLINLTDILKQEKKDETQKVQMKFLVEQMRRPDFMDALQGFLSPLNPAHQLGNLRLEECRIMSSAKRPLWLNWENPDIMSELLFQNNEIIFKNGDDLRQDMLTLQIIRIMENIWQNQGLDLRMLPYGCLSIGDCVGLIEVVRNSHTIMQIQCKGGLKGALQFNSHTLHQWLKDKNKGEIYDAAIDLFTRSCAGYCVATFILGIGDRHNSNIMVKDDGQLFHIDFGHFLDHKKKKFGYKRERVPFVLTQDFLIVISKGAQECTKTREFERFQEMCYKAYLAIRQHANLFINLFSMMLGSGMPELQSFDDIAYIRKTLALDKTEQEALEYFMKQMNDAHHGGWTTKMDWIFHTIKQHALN

Regarding `COC(=O)N1CCC(n2ncc3c(N4CCOCC4)nc(-c4ccc(NC(=O)Nc5ccc(N6CCN(C)CC6)cc5)cc4)nc32)CC1`, the solubility in data set [1] was > 100 µg/mL.

As to `CNC(=O)Nc1ccc(-c2nc(N3CCOCC3)c3cnn(C4CCNCC4)c3n2)cc1`, the IC50 is 1370 nM in the data set on LNCaP and 1.4 nM in data set [2]. Further, the half-life at 1 µM in data set [3] was > 30 min.

Take `CNC(=O)Nc1ccc(-c2nc(N3CCOCC3)c3cnn(C4CCN(Cc5ccccc5)CC4)c3n2)cc1`: the half-life at 1 µM in [3] came out at 3 min.

In turn, `CC(=O)Nc1cccc(-c2nc(N3CCOCC3)c3cnn(C4CCN(Cc5ccccc5)CC4)c3n2)c1` had a concentration for half-maximal inhibition (IC50) in data set [2] of 2450 nM.

With `CC(=O)Nc1ccc(-c2nc(N3CCOCC3)c3cnn(C4CCN(Cc5cccnc5)CC4)c3n2)cc1`, the IC50 with LNCaP stood at 66 nM; in data set [2] it was 7 nM. In addition, in data set [3], the half-life at 1 µM came to 12 min.

Consider `COC(=O)N1CCC(n2ncc3c(N4CCOCC4)nc(-c4ccc(NC(=O)OCCO)cc4)nc32)CC1`, for which the figures for the half-maximal inhibitory concentration (IC50) (in the data set with LNCaP; in data set [2]) were 28 nM and 1 nM, respectively. For the same compound, the half-life at 1 µM in data set [3] was > 30 min.

As to `CCNC(=O)Nc1ccc(-c2nc(N3CCOCC3)c3cnn(C4CCN(C(=O)OC)CC4)c3n2)cc1`, the IC50 was 55 nM with LNCaP and 0.32 nM in data set [2]. Moreover, the half-life at 1 µM in data set [3] was > 30 min.

In turn, `CNC(=O)Nc1ccc(-c2nc(N3CCOCC3)c3cnn(C4CCN(C(=O)OC)CC4)c3n2)cc1` yielded a T/C in data set [4] of 0.57. The result in the data set on Mus musculus [5] was inactive. Besides, the outcome in the data set on Mus musculus [6] and in the data set on Mus musculus [7] was Active.

Regarding `CNC(=O)Nc1ccc(-c2nc(N3CCOCC3)c3cnn(C4CCN(Cc5cccnc5)CC4)c3n2)cc1`, the half-life at 1 µM in data set [3] turned out to be 12 min.

In the case of `CNC(=O)Nc1ccc(-c2nc(N3CCOCC3)c3cnn(C4CCN(C)CC4)c3n2)cc1`, the figures for the half-maximal inhibitory concentration (IC50) (with LNCaP; in data set [2]) were 733 nM and 22 nM, respectively. For the same compound, the half-life at 1 µM in [3] is 2 min.

In the case of `CCOC(=O)Nc1ccc(-c2nc(N3CCOCC3)c3cnn(C4CCN(Cc5ccccc5)CC4)c3n2)cc1`, the 50% inhibitory concentration (IC50) was 631 nM in data set [8], 3400 nM with LNCaP and 46 nM in data set [2].

As a reminder, the solubility is how much of the substance goes into solution per volume. A word on the IC50: it is the concentration needed to halve the response being measured. Usually half-life stands for how long it takes for the measured level to halve.
